What was measured:
[1] = 298.15 K; 101.33 kPa; Liquid; Vibrating tube method
[2] = excess molar enthalpy (molar enthalpy of mixing); xn = mol fraction of the nth substance listed; settings: 298.15 K, 101 kPa, Liquid, isothermal titration calorimeter

CCCCCC(=O)O [hexanoic acid]
Settings | mass density [kg/m3]
[1] | 922.06

CCCCCCC(C)=O [2-octanone] + CCCCCCO
[2]
Settings | excess molar enthalpy [kcal/mol]
x2 = 0.021 | 0.0275
x2 = 0.041 | 0.0519
x2 = 0.06 | 0.0741
x2 = 0.079 | 0.0939
x2 = 0.097 | 0.112
x2 = 0.114 | 0.129
x2 = 0.13 | 0.143
x2 = 0.146 | 0.157
x2 = 0.164 | 0.171
x2 = 0.181 | 0.183
x2 = 0.197 | 0.195
x2 = 0.213 | 0.205
x2 = 0.228 | 0.214
x2 = 0.242 | 0.223
x2 = 0.259 | 0.232
x2 = 0.275 | 0.239
x2 = 0.29 | 0.246
x2 = 0.304 | 0.252
x2 = 0.314 | 0.258
x2 = 0.322 | 0.261
x2 = 0.331 | 0.264
x2 = 0.339 | 0.267
x2 = 0.349 | 0.27
x2 = 0.359 | 0.273
x2 = 0.367 | 0.275
x2 = 0.376 | 0.278
x2 = 0.385 | 0.28
x2 = 0.394 | 0.282
x2 = 0.405 | 0.284
x2 = 0.415 | 0.286
x2 = 0.426 | 0.287
x2 = 0.438 | 0.289
x2 = 0.448 | 0.29
x2 = 0.458 | 0.291
x2 = 0.469 | 0.291
x2 = 0.48 | 0.291
x2 = 0.492 | 0.292
x2 = 0.504 | 0.292
x2 = 0.517 | 0.291
x2 = 0.531 | 0.29
x2 = 0.542 | 0.289
x2 = 0.554 | 0.288
x2 = 0.566 | 0.286
x2 = 0.58 | 0.284
x2 = 0.593 | 0.282
x2 = 0.608 | 0.279
x2 = 0.623 | 0.275
x2 = 0.638 | 0.271
x2 = 0.652 | 0.266
x2 = 0.667 | 0.261
x2 = 0.682 | 0.255
x2 = 0.698 | 0.249
x2 = 0.714 | 0.241
x2 = 0.731 | 0.233
x2 = 0.746 | 0.225
x2 = 0.762 | 0.217
x2 = 0.778 | 0.207
x2 = 0.795 | 0.196
x2 = 0.812 | 0.185
x2 = 0.83 | 0.171
x2 = 0.85 | 0.157
x2 = 0.866 | 0.143
x2 = 0.879 | 0.129
x2 = 0.897 | 0.112
x2 = 0.916 | 0.0944
x2 = 0.936 | 0.0746
x2 = 0.956 | 0.0526
x2 = 0.978 | 0.0277

CCCCCCC(C)=O [2-octanone]
Settings | mass density [kg/m3]
[1] | 814.32

CCCCCC(=O)O [hexanoic acid] + CN(C)C=O
[2]
Settings | excess molar enthalpy [kcal/mol]
x2 = 0.048 | -0.0576
x2 = 0.092 | -0.11
x2 = 0.132 | -0.158
x2 = 0.169 | -0.202
x2 = 0.203 | -0.243
x2 = 0.24 | -0.288
x2 = 0.274 | -0.328
x2 = 0.304 | -0.363
x2 = 0.333 | -0.394
x2 = 0.359 | -0.42
x2 = 0.383 | -0.442
x2 = 0.412 | -0.467
x2 = 0.439 | -0.484
x2 = 0.464 | -0.496
x2 = 0.486 | -0.503
x2 = 0.502 | -0.506
x2 = 0.516 | -0.506
x2 = 0.53 | -0.505
x2 = 0.543 | -0.503
x2 = 0.556 | -0.499
x2 = 0.568 | -0.494
x2 = 0.579 | -0.489
x2 = 0.589 | -0.483
x2 = 0.602 | -0.475
x2 = 0.613 | -0.467
x2 = 0.625 | -0.458
x2 = 0.635 | -0.449
x2 = 0.645 | -0.44
x2 = 0.656 | -0.43
x2 = 0.666 | -0.42
x2 = 0.676 | -0.409
x2 = 0.685 | -0.4
x2 = 0.694 | -0.39
x2 = 0.702 | -0.381
x2 = 0.71 | -0.372
x2 = 0.718 | -0.363
x2 = 0.726 | -0.352
x2 = 0.735 | -0.342
x2 = 0.743 | -0.332
x2 = 0.75 | -0.323
x2 = 0.757 | -0.314
x2 = 0.764 | -0.306
x2 = 0.77 | -0.298
x2 = 0.776 | -0.291
x2 = 0.782 | -0.283
x2 = 0.789 | -0.275
x2 = 0.794 | -0.268
x2 = 0.799 | -0.261
x2 = 0.812 | -0.241
x2 = 0.824 | -0.226
x2 = 0.836 | -0.21
x2 = 0.849 | -0.194
x2 = 0.862 | -0.177
x2 = 0.875 | -0.159
x2 = 0.889 | -0.142
x2 = 0.903 | -0.124
x2 = 0.916 | -0.107
x2 = 0.929 | -0.0906
x2 = 0.942 | -0.0736
x2 = 0.956 | -0.0557
x2 = 0.97 | -0.0373
x2 = 0.985 | -0.0186

CCCCCCO [hexan-1-ol]
Settings | mass density [kg/m3]
[1] | 815.21

CN(C)C=O [dimethylformamide]
Settings | mass density [kg/m3]
[1] | 944.34

C[S+](C)[O-] [dimethyl sulfoxide]
Settings | mass density [kg/m3]
[1] | 1095.32

CCCCCCCC(=O)O [octanoic acid] + CCCCCCO
[2]
Settings | excess molar enthalpy [kcal/mol]
x2 = 0.038 | 0.0373
x2 = 0.074 | 0.065
x2 = 0.106 | 0.0868
x2 = 0.137 | 0.105
x2 = 0.167 | 0.12
x2 = 0.18 | 0.132
x2 = 0.186 | 0.135
x2 = 0.193 | 0.138
x2 = 0.201 | 0.141
x2 = 0.209 | 0.144
x2 = 0.218 | 0.147
x2 = 0.228 | 0.151
x2 = 0.239 | 0.154
x2 = 0.251 | 0.157
x2 = 0.261 | 0.16
x2 = 0.273 | 0.162
x2 = 0.286 | 0.165
x2 = 0.3 | 0.167
x2 = 0.31 | 0.169
x2 = 0.322 | 0.17
x2 = 0.334 | 0.172
x2 = 0.347 | 0.173
x2 = 0.361 | 0.174
x2 = 0.377 | 0.175
x2 = 0.394 | 0.176
x2 = 0.407 | 0.176
x2 = 0.422 | 0.175
x2 = 0.437 | 0.175
x2 = 0.454 | 0.174
x2 = 0.472 | 0.173
x2 = 0.492 | 0.171
x2 = 0.508 | 0.168
x2 = 0.526 | 0.166
x2 = 0.544 | 0.163
x2 = 0.564 | 0.158
x2 = 0.586 | 0.154
x2 = 0.607 | 0.148
x2 = 0.629 | 0.143
x2 = 0.65 | 0.137
x2 = 0.672 | 0.13
x2 = 0.696 | 0.123
x2 = 0.722 | 0.114
x2 = 0.749 | 0.105
x2 = 0.773 | 0.0966
x2 = 0.798 | 0.0872
x2 = 0.825 | 0.0765
x2 = 0.853 | 0.0645
x2 = 0.884 | 0.0528
x2 = 0.91 | 0.0409
x2 = 0.938 | 0.0282
x2 = 0.968 | 0.0146

Reference: the NIST ThermoML archive (doi:10.1016/j.jct.2011.07.018)
